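These data come from cells grown in 96-well plates and exposed to compound for 48 hours at five concentrations. Here, GI50 denotes the concentration required for 50% inhibition of growth. The concentration for full growth arrest is given as TGI.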
Key:
Assay in all cases: growth of human tumour cells (NCI), 48 h
MCF7 breast = system: MCF7 breast
MDA-MB-435 = system: MDA-MB-435
RPMI-8226 leukemia = system: RPMI-8226 leukemia
SF-539 CNS = system: SF-539 CNS
SK-MEL-28 melanoma = system: SK-MEL-28 melanoma
NCI-H226 lung = system: NCI-H226 lung
LOX IMVI melanoma = system: LOX IMVI melanoma
HT29 colon = system: HT29 colon
SN12C renal = system: SN12C renal
KM12 colon = system: KM12 colon
PC-3 prostate = system: PC-3 prostate
UO-31 renal = system: UO-31 renal
HOP-92 NSCLC = system: HOP-92 NSCLC
UACC-62 melanoma = system: UACC-62 melanoma
SNB-75 CNS = system: SNB-75 CNS
EKVX NSCLC = system: EKVX NSCLC
SK-MEL-2 melanoma = system: SK-MEL-2 melanoma
IGROV1 ovarian = system: IGROV1 ovarian
SF-295 CNS = system: SF-295 CNS
786-0 renal = system: 786-0 renal
ACHN renal = system: ACHN renal
MALME-3M melanoma = system: MALME-3M melanoma
RXF 393 renal = system: RXF 393 renal
CCRF-CEM leukemia = system: CCRF-CEM leukemia
COLO 205 colon = system: COLO 205 colon
SF-268 CNS = system: SF-268 CNS
HCT-116 colon = system: HCT-116 colon
OVCAR-5 ovarian = system: OVCAR-5 ovarian
A549 NSCLC = system: A549 NSCLC
U251 CNS = system: U251 CNS
BT-549 breast = system: BT-549 breast
HCT-15 colon = system: HCT-15 colon
OVCAR-3 ovarian = system: OVCAR-3 ovarian
CAKI-1 renal = system: CAKI-1 renal
SK-MEL-5 melanoma = system: SK-MEL-5 melanoma
MOLT-4 leukemia = system: MOLT-4 leukemia
T-47D breast = system: T-47D breast
MDA-MB-231 breast = system: MDA-MB-231 breast
NCI-H522 lung = system: NCI-H522 lung
HL-60(TB) leukemia = system: HL-60(TB) leukemia
HS 578T breast = system: HS 578T breast
SW-620 colon = system: SW-620 colon
OVCAR-8 ovarian = system: OVCAR-8 ovarian
NCI-H460 lung = system: NCI-H460 lung
NCI-H23 lung = system: NCI-H23 lung
SNB-19 CNS = system: SNB-19 CNS
M14 melanoma = system: M14 melanoma
SK-OV-3 ovarian = system: SK-OV-3 ovarian
TK-10 renal = system: TK-10 renal
HOP-62 NSCLC = system: HOP-62 NSCLC
DU-145 prostate = system: DU-145 prostate
HCC-2998 colon = system: HCC-2998 colon
UACC-257 melanoma = system: UACC-257 melanoma
OVCAR-4 ovarian = system: OVCAR-4 ovarian
A498 renal = system: A498 renal
NCI/ADR-RES ovarian = system: NCI/ADR-RES ovarian

FC(F)(F)c1cc(Nc2cccc(Oc3ccc(NC4=NCCN4)nc3)c2)ccc1Cl
GI50 (MCF7 breast): 1740 nM
TGI (MCF7 breast): 3.69 µM
GI50 (MDA-MB-435): 1660 nM
TGI (MDA-MB-435): 3.3 µM
GI50 (RPMI-8226 leukemia): 2030 nM
TGI (RPMI-8226 leukemia): 5.24 µM
GI50 (SF-539 CNS): 2070 nM
TGI (SF-539 CNS): 4.57 µM
GI50 (SK-MEL-28 melanoma): 1940 nM
TGI (SK-MEL-28 melanoma): 3.89 µM
GI50 (NCI-H226 lung): 2060 nM
TGI (NCI-H226 lung): 5.34 µM
GI50 (LOX IMVI melanoma): 1740 nM
TGI (LOX IMVI melanoma): 3.19 µM
GI50 (HT29 colon): 2050 nM
TGI (HT29 colon): 5.07 µM
GI50 (SN12C renal): 1870 nM
TGI (SN12C renal): 3.82 µM
GI50 (KM12 colon): 2020 nM
TGI (KM12 colon): 4.47 µM
GI50 (PC-3 prostate): 1920 nM
TGI (PC-3 prostate): 3.73 µM
GI50 (UO-31 renal): 2190 nM
TGI (UO-31 renal): 8.61 µM
GI50 (HOP-92 NSCLC): 1420 nM
TGI (HOP-92 NSCLC): 5.29 µM
GI50 (UACC-62 melanoma): 2590 nM
TGI (UACC-62 melanoma): 6.89 µM
GI50 (SNB-75 CNS): 1960 nM
TGI (SNB-75 CNS): 8.29 µM
GI50 (EKVX NSCLC): 2070 nM
TGI (EKVX NSCLC): 5.45 µM
GI50 (SK-MEL-2 melanoma): 2620 nM
TGI (SK-MEL-2 melanoma): 6.99 µM
GI50 (IGROV1 ovarian): 1830 nM
TGI (IGROV1 ovarian): 4.22 µM
GI50 (SF-295 CNS): 1730 nM
TGI (SF-295 CNS): 3.37 µM
GI50 (786-0 renal): 1760 nM
TGI (786-0 renal): 3.58 µM
GI50 (ACHN renal): 2910 nM
TGI (ACHN renal): 8.66 µM
GI50 (MALME-3M melanoma): 2810 nM
TGI (MALME-3M melanoma): 9.7 µM
GI50 (RXF 393 renal): 2050 nM
TGI (RXF 393 renal): 4.94 µM
GI50 (CCRF-CEM leukemia): 2800 nM
TGI (CCRF-CEM leukemia): 14.6 µM
GI50 (COLO 205 colon): 1870 nM
TGI (COLO 205 colon): 3.96 µM
GI50 (SF-268 CNS): 4.14 µM
TGI (SF-268 CNS): 17.9 µM
GI50 (HCT-116 colon): 1730 nM
TGI (HCT-116 colon): 3.19 µM
GI50 (OVCAR-5 ovarian): 2490 nM
TGI (OVCAR-5 ovarian): 6.81 µM
GI50 (A549 NSCLC): 2350 nM
TGI (A549 NSCLC): 6.31 µM
GI50 (U251 CNS): 2090 nM
TGI (U251 CNS): 4.75 µM
GI50 (BT-549 breast): 3.91 µM
TGI (BT-549 breast): 16.9 µM
GI50 (HCT-15 colon): 1660 nM
TGI (HCT-15 colon): 3.32 µM
GI50 (OVCAR-3 ovarian): 2500 nM
TGI (OVCAR-3 ovarian): 6.33 µM
GI50 (CAKI-1 renal): 2760 nM
TGI (CAKI-1 renal): 11.3 µM
GI50 (SK-MEL-5 melanoma): 1800 nM
TGI (SK-MEL-5 melanoma): 3.24 µM
GI50 (MOLT-4 leukemia): 3.2 µM
TGI (MOLT-4 leukemia): 14.2 µM
GI50 (T-47D breast): 2790 nM
TGI (T-47D breast): 11.3 µM
GI50 (MDA-MB-231 breast): 2180 nM
TGI (MDA-MB-231 breast): 5.02 µM
GI50 (NCI-H522 lung): 1930 nM
TGI (NCI-H522 lung): 4.36 µM
GI50 (HL-60(TB) leukemia): 2110 nM
TGI (HL-60(TB) leukemia): 5.53 µM
GI50 (HS 578T breast): 1980 nM
TGI (HS 578T breast): 4.63 µM
GI50 (SW-620 colon): 1760 nM
TGI (SW-620 colon): 3.65 µM
GI50 (OVCAR-8 ovarian): 2490 nM
TGI (OVCAR-8 ovarian): 6.73 µM
GI50 (NCI-H460 lung): 1980 nM
TGI (NCI-H460 lung): 3.95 µM
GI50 (NCI-H23 lung): 2530 nM
TGI (NCI-H23 lung): 7.6 µM
GI50 (SNB-19 CNS): 2740 nM
TGI (SNB-19 CNS): 8.64 µM
GI50 (M14 melanoma): 1730 nM
TGI (M14 melanoma): 3.46 µM
GI50 (SK-OV-3 ovarian): 14.8 µM
TGI (SK-OV-3 ovarian): 32 µM
GI50 (TK-10 renal): 3.97 µM
TGI (TK-10 renal): 16.1 µM
GI50 (HOP-62 NSCLC): 2220 nM
TGI (HOP-62 NSCLC): 6.1 µM
GI50 (DU-145 prostate): 2090 nM
TGI (DU-145 prostate): 4.44 µM
GI50 (HCC-2998 colon): 1980 nM
TGI (HCC-2998 colon): 3.65 µM
GI50 (UACC-257 melanoma): 3.09 µM
TGI (UACC-257 melanoma): 9.59 µM
GI50 (OVCAR-4 ovarian): 2750 nM
TGI (OVCAR-4 ovarian): 11 µM
GI50 (A498 renal): 2310 nM
TGI (A498 renal): 9.85 µM
GI50 (NCI/ADR-RES ovarian): 2050 nM
TGI (NCI/ADR-RES ovarian): 4.52 µM

From PubChem BioAssay (NCI)
